# According to PubChem BioAssay (NCI):
#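 Assay format: 96-well plates, 48-hour exposure. The concentration for 50% growth inhibition is given as GI50. Definition used: TGI = concentration required for complete inhibition of growth.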
# Key:
# Test in all cases: NCI tumour cell line growth inhibition, 48 h
# MALME-3M melanoma = tested on: MALME-3M melanoma
# MOLT-4 leukemia = tested on: MOLT-4 leukemia
# SK-MEL-5 melanoma = tested on: SK-MEL-5 melanoma
# SR leukemia = tested on: SR leukemia
# NCI-H226 lung = tested on: NCI-H226 lung
# OVCAR-8 ovarian = tested on: OVCAR-8 ovarian
# U251 CNS = tested on: U251 CNS
# K-562 leukemia = tested on: K-562 leukemia
# ACHN renal = tested on: ACHN renal
# HOP-92 NSCLC = tested on: HOP-92 NSCLC
Structure (SMILES),GI50 (MALME-3M melanoma),TGI (MALME-3M melanoma),GI50 (MOLT-4 leukemia),TGI (MOLT-4 leukemia),GI50 (SK-MEL-5 melanoma),TGI (SK-MEL-5 melanoma),GI50 (SR leukemia),TGI (SR leukemia),GI50 (NCI-H226 lung),TGI (NCI-H226 lung),GI50 (OVCAR-8 ovarian),TGI (OVCAR-8 ovarian),GI50 (U251 CNS),TGI (U251 CNS),GI50 (K-562 leukemia),TGI (K-562 leukemia),GI50 (ACHN renal),TGI (ACHN renal),TGI (HOP-92 NSCLC),GI50 (HOP-92 NSCLC)
C(=N\Nc1nnn(Cc2ccccc2)n1)/c1ccccc1,4.64 µM,> 82.7 µM,3.82 µM,> 100 µM,2020 nM,> 40.7 µM,301 nM,2.21 µM,10.4 µM,> 100 µM,6.72 µM,> 100 µM,3.47 µM,24.9 µM,430 nM,> 100 µM,16.1 µM,> 100 µM,–,–
CCN(C(=O)/C=C/c1ccco1)c1ccccc1,–,–,–,> 100 µM,–,> 100 µM,–,> 100 µM,–,> 100 µM,–,> 100 µM,–,> 100 µM,–,> 100 µM,–,> 100 µM,> 100 µM,–
CSC1=Nc2ccccc2N=C(c2ccc(Cl)cc2)C1,–,92.6 µM,–,67.4 µM,–,51.3 µM,–,> 100 µM,–,> 100 µM,–,> 100 µM,–,> 100 µM,–,> 100 µM,–,> 100 µM,–,–
CN(C)C(=S)/N=c1\ssc(=S)n1Cc1ccncc1,–,50.2 µM,–,49.3 µM,–,17.4 µM,–,45.4 µM,–,> 100 µM,–,68.9 µM,–,39 µM,–,> 100 µM,–,93.1 µM,–,–
Cc1ccccc1C(=O)N1CCN(C(=O)c2ccccc2C)CC1,–,–,–,> 100 µM,–,> 100 µM,–,> 100 µM,–,–,–,> 100 µM,–,> 100 µM,–,> 100 µM,–,> 100 µM,> 100 µM,–
C=C1C[C@@H]2CC[C@@]34C[C@H]5O[C@H]6[C@@H](O3)[C@H]3O[C@H](CC[C@@H]3O[C@H]6[C@@H]5O4)CC(=O)C[C@@H]3[C@@H](OC)[C@@H](C[C@H](O)CN)O[C@H]3C[C@H]3O[C@@H](CC[C@@H]1O2)C[C@@H](C)C3=C,–,–,< 0.01 µM,> 100 µM,< 13.5 nM,1.11 µM,< 10 nM,> 100 µM,–,–,< 0.0153 µM,> 100 µM,< 0.01 µM,> 100 µM,< 10 nM,> 100 µM,0.158 µM,> 100 µM,79.4 µM,73.4 nM
CCCCN(CC)CC(C(C)=O)c1c(O)c2ccccc2oc1=O (centres undefined),–,> 100 µM,–,> 100 µM,–,> 100 µM,–,> 100 µM,–,> 100 µM,–,> 100 µM,–,> 100 µM,–,> 100 µM,–,> 100 µM,–,–
CN(C)CCNC(=O)Cn1ccc(=O)c2c([N+](=O)[O-])cccc21,–,> 100 µM,–,> 100 µM,–,> 100 µM,–,> 100 µM,–,> 100 µM,–,> 100 µM,–,> 100 µM,–,> 100 µM,–,> 100 µM,–,–
C[N+](C)(C)CC1CCCCC1O (centres undefined),–,–,–,> 100 µM,–,> 100 µM,–,> 100 µM,–,> 100 µM,–,> 100 µM,–,> 100 µM,–,–,–,> 100 µM,> 100 µM,–
c1ccc(N2N=C(c3ccco3)CC2c2ccco2)cc1 (centres undefined),–,> 100 µM,–,52.4 µM,–,> 100 µM,–,> 100 µM,–,> 100 µM,–,> 100 µM,–,> 100 µM,–,> 100 µM,–,> 100 µM,–,–
Oc1ccccc1-c1nn(CNc2ccccc2Cl)c(=S)o1,–,–,–,–,> 100000 nM,> 100 µM,25200 nM,89.6 µM,> 100 µM,> 100 µM,> 100 µM,> 100 µM,31.4 µM,> 100 µM,> 100000 nM,> 100 µM,16.8 µM,38.5 µM,66.2 µM,16400 nM
CCC(=O)Nc1nc2c(ncn2C2OC(COC(=O)CC)C(OC(=O)CC)C2OC(=O)CC)c(=O)[nH]1 (centres undefined),–,> 100 µM,–,> 100 µM,–,> 100 µM,–,> 100 µM,–,> 100 µM,–,> 100 µM,–,> 100 µM,–,> 100 µM,–,> 100 µM,–,–
C/C(=N/NC(=O)C[N+](C)(C)C)C(CN(C)C)C(=O)Nc1ccccc1 (centres undefined),–,> 100 µM,–,> 100 µM,–,> 100 µM,–,> 100 µM,–,> 100 µM,–,> 100 µM,–,> 100 µM,–,> 100 µM,–,> 100 µM,–,–
COc1cnc2c(c1)C(=O)c1c-2n(CCCN2CCN(C)CC2)c(=O)c2cc([N+](=O)[O-])ccc12,–,–,–,–,1310 nM,2.64 µM,24.9 nM,0.365 µM,13.7 µM,35.8 µM,1.19 µM,6.96 µM,0.165 µM,0.386 µM,154 nM,0.395 µM,–,–,4.37 µM,1820 nM
CCOC(=O)C(NC(=O)c1nc[nH]c1[N+](=O)[O-])C(C)C (centres undefined),–,> 100 µM,–,> 100 µM,–,> 100 µM,–,> 100 µM,–,> 100 µM,–,> 100 µM,–,> 100 µM,–,> 100 µM,–,> 100 µM,–,–
CSC(=NCCc1c[nH]c2ccccc12)NC#N,–,–,–,> 100 µM,–,> 100 µM,–,> 100 µM,–,> 100 µM,–,> 100 µM,–,> 100 µM,–,> 100 µM,–,> 100 µM,–,–
